Test results from patent US11230556B2 (Merck Sharp & Dohme Corp., priority 2016, dated 2022).

Target: T1, human M4 muscarinic acetylcholine receptor (Homo sapiens, UniProt P08173)
T1 construct: expressed in transfected cells; host or cells: CHO-K1
T1 sequence (P08173 1-479): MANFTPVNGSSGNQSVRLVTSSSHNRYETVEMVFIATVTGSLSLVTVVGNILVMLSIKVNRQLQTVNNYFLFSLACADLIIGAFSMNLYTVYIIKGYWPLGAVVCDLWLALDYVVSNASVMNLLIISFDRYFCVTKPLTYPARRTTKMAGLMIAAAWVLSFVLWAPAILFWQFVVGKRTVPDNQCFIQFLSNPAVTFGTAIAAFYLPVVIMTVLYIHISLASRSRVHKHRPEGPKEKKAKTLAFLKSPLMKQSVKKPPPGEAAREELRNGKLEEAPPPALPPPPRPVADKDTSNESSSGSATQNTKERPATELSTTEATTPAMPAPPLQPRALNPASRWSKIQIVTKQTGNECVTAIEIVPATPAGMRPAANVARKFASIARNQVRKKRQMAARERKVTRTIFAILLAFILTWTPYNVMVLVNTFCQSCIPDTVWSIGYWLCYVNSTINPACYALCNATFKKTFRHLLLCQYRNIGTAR
Assay: human FLIPR-based M4 PAM assay (CHO-K1 cells with human M4 receptor and Gαqi5, calcium dye fluorescence, acetylcholine at 20% of maximum response)
Format: cell-based
Conditions: inflection point (IP) of 4 parameter logistic dose response curve, human M4 receptor + Gαqi5, FLIPR Tetra
Description: In a typical experiment the M4 muscarinic acetylcholine receptor modulating activity of the compounds of the present invention was determined in accordance with the following experimental method. CHO-K1 cells stably transfected with human M4 receptor and chimeric G-protein Gαqi5 (Coward P, et al., Analytical Biochemistry, 270:242-248 (1999)) are thawed from liquid N2 storage, resuspended in growth medium, plated in black, clear bottom 384 well plates, and incubated 16-20 hours at 37° C., 5% CO2. On the day of assay, growth medium is removed, the cells are washed 2 times with wash buffer, and cells are incubated in dye loading buffer at 37° C., 5% CO2 for ˜1 hour. Following dye loading the cell plates are placed in a FLIPR Tetra instrument and while monitoring dye fluorescence (excitation […]), 10 uL of test substance at increasing concentrations is added, and fluorescence values are recorded for 4 min. Next, 10 uL of acetylcholine is added (final concentration calculated so as to achieve 20% of the maximum acetycholine response), and the fluorescence reading is continued for 3.5 min. In some cases, a third addition of acetylcholine (final concentration calculated to achieve 70% of the maximal acetylcholine response) is performed. The resulting dose response curves are fit to a 4 parameter logistic equation and the final result is determined as the inflection point (IP) of the curve
CHO-K1 cells stably transfected with human M4 receptor and chimeric G-protein Gαqi5 are thawed from liquid N2 storage, resuspended in growth medium, plated in black, clear bottom 384 well plates, and incubated 16-20 hours at 37° C., 5% CO2.
On the day of assay, growth medium is removed, the cells are washed 2 times with wash buffer, and cells are incubated in dye loading buffer at 37° C., 5% CO2 for ˜1 h. Following dye loading the cell plates are placed in a FLIPR Tetra instrument and while monitoring dye fluorescence ([…]), 10 uL of test substance at increasing concentrations is added, and fluorescence values are recorded for 4 min. Next, 10 uL of acetylcholine is added (final concentration calculated so as to achieve 20% of the maximum acetycholine response), and the fluorescence reading is continued for 3.5 min. In some cases, a third addition of acetylcholine (final concentration calculated to achieve 70% of the maximal acetylcholine response) is performed.

Row | Compound | EC50
1 | COc1ccc(OC2CCN(c3nc4c(cc3C)CN(C(=O)C3COC3)C4)CC2)cn1 [Example 55, (2-(4-((6-methoxypyridin-3-yl)oxy)piperidin-1-yl)-3-methyl-5,7-dihydro-6H-pyrrolo[3,4-b]pyridin-6-yl)(oxetan-3-yl)methanone] | 212 nM
2 | COCCC(=O)N1Cc2cc(C)c(N3CCC(Oc4ccc(OC)nc4)CC3)nc2C1 [Example 56, 3-methoxy-1-(2-(4-((6-methoxypyridin-3-yl)oxy)piperidin-1-yl)-3-methyl-5,7-dihydro-6H-pyrrolo[3,4-b]pyridin-6-yl)propan-1-one] | 221 nM
3 | COc1ccc(OC2CCN(c3nc4c(cc3C)CN(C(=O)C3CC3(F)F)C4)CC2)cn1 (centres unmarked) [Example 57, (2,2-difluorocyclopropyl)(2-(4-((6-methoxypyridin-3-yl)oxy)piperidin-1-yl)-3-methyl-5,7-dihydro-6H-pyrrolo[3,4-b]pyridin-6-yl)methanone] | 378 nM
4 | COc1ccc(OC2CCN(c3nc4c(cc3C)CN(S(=O)(=O)C3CC3)C4)CC2)cn1 [Example 58, 6-(Cyclopropylsulfonyl)-2-(4-((6-methoxypyridin-3-yl)oxy)piperidin-1-yl)-3-methyl-6,7-dihydro-5H-pyrrolo[3,4-b]pyridine] | 168 nM
5 | COc1ccc(OC2CCN(c3nc4c(cc3C)CN(S(C)(=O)=O)C4)CC2)cn1 [Example 59, 2-(4-((6-methoxypyridin-3-yl)oxy)piperidin-1-yl)-3-methyl-6-(methylsulfonyl)-6,7-dihydro-5H-pyrrolo[3,4-b]pyridine] | 125 nM
6 | Cc1cc2c(nc1N1CCC(Oc3ccccc3)CC1)CN(S(C)(=O)=O)C2 [Example 60, 3-methyl-6-(methylsulfonyl)-2-(4-phenoxypiperidin-1-yl)-6,7-dihydro-5H-pyrrolo[3,4-b]pyridine] | 20 nM
7 | COC(=O)N1Cc2cc(C)c(N3CCC(Oc4ccc(OC)nc4)CC3)nc2C1 [Example 61, methyl 2-(4-((6-methoxypyridin-3-yl)oxy)piperidin-1-yl)-3-methyl-5,7-dihydro-6H-pyrrolo[3,4-b]pyridine-6-carboxylate] | 156 nM
8 | COC(=O)N1Cc2cc(C)c(N3CCC(Oc4ccccc4)CC3)nc2C1 [Example 62, methyl 3-methyl-2-(4-phenoxypiperidin-1-yl)-5,7-dihydro-6H-pyrrolo[3,4-b]pyridine-6-carboxylate] | 114 nM
9 | COc1ccc(OC2CCN(c3nc4[nH]ncc4cc3C)CC2)cn1 [Example 63, 6-(4-((6-Methoxypyridin-3-yl)oxy)piperidin-1-yl)-5-methyl-1H-pyrazolo[3,4-b]pyridine] | 368 nM
10 | COc1ccc(OC2CCN(c3nc4cn(C)nc4cc3C)CC2)cn1 [Example 64, 5-(4-((6-Methoxypyridin-3-yl)ox)piperidin-1-yl)-2,6-dimethyl-2H-pyrazolo[4,3-b]pyridine] | 242 nM
11 | COc1ccc(OC2CCN(c3nc4c(C)n[nH]c4cc3C)CC2)cn1 [Example 65, 5-(4-((6-Methoxypyridin-3-yl)oxy)piperidin-1-yl)-3,6-dimethyl-1H-pyrazolo [4,3-b]pyridine] | 1650 nM
12 | COc1ccc(OC2CCN(c3nc4cnn(C)c4cc3C)CC2)cn1 [Example 66, 5-(4-((6-methoxypyridin-3-yl)oxy)piperidin-1-yl)-1,6-dimethyl-1H-pyrazolo[4,3-b]pyridine] | 1380 nM
13 | COc1ccc(OC2CCN(c3nc4nccn4cc3C)CC2)cn1 [Example 67, 7-(4-((6-methoxypyridin-3-yl)oxy)piperidin-1-yl)-6-methylimidazo[1,2-a]pyrimidine] | 765 nM
14 | COc1ccc(OC2CCN(c3nc4c(cc3C)C(=O)CC4)CC2)cn1 [Example 69, 2-(4-((6-Methoxypyridin-3-yl)oxy)piperidin-1-yl)-3-methyl-6,7-dihydro-5H-cyclopenta[b]pyridin-5-one] | 42 nM
15 | COc1ccc(OC2CCN(c3nc4c(cc3C)C(=O)C(F)(F)C4)CC2)cn1 [Example 70, 6,6-difluoro-2-(4-((6-methoxypyridin-3-yl)oxy)piperidin-1-yl)-3-methyl-6,7-dihydro-5H-cyclopenta[b]pyridin-5-one] | 63 nM
16 | COc1ccc(OC2CCN(c3nc4c(cc3C)CCC4)CC2)cn1 [Example 72, 2-(4-((6-Methoxypyridin-3-yl)oxy)piperidin-1-yl)-3-methyl-6,7-dihydro-5H-cyclopenta[b]pyridine] | 1510 nM
17 | COc1ccc(OC2CCN(c3nc4c(cc3C)C(=O)C(C)(C)C4)CC2)cn1 [Example 73, 2-(4-((6-Methoxypyridin-3-yl)oxy)piperidin-1-yl)-3,6,6-trimethyl-6,7-dihydro-5H-cyclopenta[b]pyridin-5-one] | 292 nM
18 | COc1ccc(OC2CCN(c3nc4c(cc3C)C(=O)C(C)C4)CC2)cn1 (centres unmarked) [Example 74, 2-(4-((6-Methoxypyridin-3-yl)oxy)piperidin-1-yl)-3,6-dimethyl-6,7-dihydro-5H-cyclopenta[b]pyridin-5-one] | 119 nM
19 | COc1ccc(OC2CCN(c3nc4c(cc3C)S(=O)(=O)NC4)CC2)cn1 [Example 75, 5-(4-((6-Methoxypyridin-3-yl)oxy)piperidin-1-yl)-6-methyl-2,3-dihydroisothiazolo[4,5-b]pyridine 1,1-dioxide] | 165 nM
20 | Cc1cc2c(nc1N1CCC(Oc3cccc(C#N)c3)CC1)CNS2(=O)=O [Example 76, 3-((1-(6-methyl-1,1-dioxido-2,3-dihydroisothiazolo[4,5-b]pyridin-5-yl)piperidin-4-yl)oxy)benzonitrile] | 221 nM
21 | Cc1cc2c(nc1N1CCC(Oc3ccccc3)CC1)CNS2(=O)=O [Example 77, 6-methyl-5-(4-phenoxypiperidin-1-yl)-2,3-dihydroisothiazolo[4,5-b]pyridine 1,1-dioxide] | 275 nM
22 | COc1ccc(OC2CCN(c3nc4[nH]c(=O)[nH]c4cc3C)CC2)cn1 [Example 79, 5-(4-((6-Methoxypyridin-3-yl)oxy)piperidin-1-yl)-6-methyl-1,3-dihydro-2H-imidazo[4,5-b]pyridin-2-one] | 1170 nM
23 | COc1ccc(OC2CCN(c3nc4nnc(C(F)(F)F)n4cc3C)CC2)cn1 [Example 80, 7-(4-((6-Methoxypyridin-3-yl)oxy)piperidin-1-yl)-6-methyl-3-(trifluoromethyl)-[1,2,4]triazolo[4,3-a]pyrimidine] | 3090 nM
24 | COc1ccc(OC2CCN(c3nc4c(cc3C)C(=O)N3CCOCC43)CC2)cn1 (centres unmarked) [Example 82, 2-(4-((6-methoxypyridin-3-yl)oxy)piperidin-1-yl)-3-methyl-7,8,10,10a-tetrahydro-5H-pyrido[2′,3′:3,4]pyrrolo[2,1-c][1,4]oxazin-5-one] | 92 nM
25 | (R)-2-(4-((1,3-dihydroisobenzofuran-5-yl)oxy)piperidin-1-yl)-3-methyl-8,9,10,10a-tetrahydropyrido[2′,3′:3,4]pyrrolo[1,2-a]pyrazin-5(7H)-one and (S)-2-(4-((1,3-dihydroisobenzofuran-5-yl)oxy)piperidin-1-yl)-3-methyl-8,9,10,10a-tetrahydropyrido[2′,3′:3,4]pyrrolo[1,2-a]pyrazin-5(7H)-one [Example 83B] | 25 nM
26 | (R)-2-(4-((6-Methoxypyridin-3-yl)oxy)piperidin-1-yl)-3,7-dimethylfuro[3,4-b]pyridin-5(7H)-one and (S)-2-(4-((6-methoxypyridin-3-yl)oxy)piperidin-1-yl)-3,7-dimethylfuro[3,4-b]pyridin-5(7H)-one [Example 29A] | 267 nM
